Reference: patent publication US20260158017A1, “KIF18A INHIBITOR” (WIGEN BIOMEDICINE TECHNOLOGY (SHANGHAI) CO., LTD., priority 2021, published 2026)

biological target: T1, Recombinant human KIF18A (1-467His-tagged) protein (Homo sapiens, UniProt Q8NI77); experiment: KIF18A enzyme assay (microtubule-stimulated ATPase activity, ADP-Glo); format: biochemical; details: 30 nM KIF18A, 75 μM ATP, 30 μg/mL pig microtubules; read-out: Inhibitory activity against KIF18A IC50
T1 construct: Recombinant human KIF18A (1-467His-tagged) protein; His; made in house
T1 sequence (Q8NI77 1-467): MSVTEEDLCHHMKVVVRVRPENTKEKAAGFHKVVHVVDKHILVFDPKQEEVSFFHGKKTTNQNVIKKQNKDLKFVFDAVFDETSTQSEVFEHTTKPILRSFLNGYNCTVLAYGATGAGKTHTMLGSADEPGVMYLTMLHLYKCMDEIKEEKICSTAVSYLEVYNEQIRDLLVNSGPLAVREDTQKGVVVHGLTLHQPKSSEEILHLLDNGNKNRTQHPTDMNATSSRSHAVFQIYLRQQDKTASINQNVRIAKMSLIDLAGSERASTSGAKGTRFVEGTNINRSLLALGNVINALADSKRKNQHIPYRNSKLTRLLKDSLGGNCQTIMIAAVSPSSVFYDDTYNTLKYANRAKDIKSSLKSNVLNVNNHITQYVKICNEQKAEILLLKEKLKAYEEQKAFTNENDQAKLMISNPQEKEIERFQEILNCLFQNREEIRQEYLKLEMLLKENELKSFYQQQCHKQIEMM
T1 sequence (P02550 whole entry partner): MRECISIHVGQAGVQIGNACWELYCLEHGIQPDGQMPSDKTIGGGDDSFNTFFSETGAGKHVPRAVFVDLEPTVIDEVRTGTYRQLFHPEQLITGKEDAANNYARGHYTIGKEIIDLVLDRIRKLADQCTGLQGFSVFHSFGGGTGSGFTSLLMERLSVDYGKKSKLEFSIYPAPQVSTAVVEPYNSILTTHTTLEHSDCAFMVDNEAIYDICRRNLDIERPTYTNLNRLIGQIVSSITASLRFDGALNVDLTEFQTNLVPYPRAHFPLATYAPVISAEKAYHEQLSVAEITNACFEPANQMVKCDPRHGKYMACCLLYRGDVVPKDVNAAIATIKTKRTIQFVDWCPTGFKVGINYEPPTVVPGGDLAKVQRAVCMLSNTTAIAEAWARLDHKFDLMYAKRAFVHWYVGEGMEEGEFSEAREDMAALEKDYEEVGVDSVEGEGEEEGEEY
T1 sequence (P02554 whole entry partner): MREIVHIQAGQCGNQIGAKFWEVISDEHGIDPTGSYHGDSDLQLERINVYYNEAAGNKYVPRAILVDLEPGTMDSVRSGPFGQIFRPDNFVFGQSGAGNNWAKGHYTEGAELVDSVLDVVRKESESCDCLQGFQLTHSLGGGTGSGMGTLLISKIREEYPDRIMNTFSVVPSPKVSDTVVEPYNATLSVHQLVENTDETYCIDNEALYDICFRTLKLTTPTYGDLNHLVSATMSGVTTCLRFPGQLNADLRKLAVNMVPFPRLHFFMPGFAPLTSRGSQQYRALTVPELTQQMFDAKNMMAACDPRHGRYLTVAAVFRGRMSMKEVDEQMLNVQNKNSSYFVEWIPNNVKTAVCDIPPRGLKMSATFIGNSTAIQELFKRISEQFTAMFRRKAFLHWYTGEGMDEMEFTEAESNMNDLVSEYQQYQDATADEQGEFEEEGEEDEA
Outline: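 Buffer 15 mM Tris pH 7.5, 10 mM MgCl2, 0.01% Pluronic F-68, 1 μM paclitaxel, 30 μg/mL pig microtubules; reactions at room temperature. IC50 from inhibition relative to DMSO.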

Compound | IC50
O=C(Nc1cnc(NS(=O)(=O)CCO)cc1N1CCC2(CC1)CC2)c1ccc([N+](=O)[O-])c(OCCC(F)(F)F)n1 [Compound 229] | ≤ 0.1 µM
CC(C)(CO)Nc1nc(C(=O)Nc2cnc(NS(=O)(=O)CCO)cc2N2CCC3(CC2)CC3)ccc1[N+](=O)[O-] [Compound 235] | ≤ 0.1 µM
COc1ccc(NC(=O)c2ccc(NS(=O)(=O)CCO)cc2N2CCC3(CC2)CC3)nc1N1CCC(C)(F)C1 (stereo not shown) [Compound 264] | ≤ 0.1 µM
COc1ccc(NC(=O)c2ccc(NS(=O)(=O)CCO)cc2N2CCC3(CC2)CC3)nc1N1CCC(F)CC1 [Compound 265] | ≤ 0.1 µM
COc1ccc(NC(=O)c2ccc(NS(=O)(=O)CCO)cc2N2CCC3(CC2)CC3)nc1N1CC2CC2C1 (stereo not shown) [Compound 266] | ≤ 0.1 µM
COc1ccc(NC(=O)c2ccc(NS(=O)(=O)CCO)cc2N2CCC3(CC2)CC3)nc1NC(C)(C)CO [Compound 267] | ≤ 0.1 µM
COc1ccc(NC(=O)c2ccc(NS(=O)(=O)CCO)cc2N2CCC3(CC2)CC3)nc1N1CCOCC1 [Compound 268] | ≤ 0.1 µM
COc1ccc(NC(=O)c2ccc(NS(=O)(=O)[C@@H](C)CO)cc2N2CCC3(CC2)CC3)nc1N1CCC(F)(F)CC1 [Compound 269] | ≤ 0.1 µM
COc1ccc(NC(=O)c2ccc(NS(=O)(=O)[C@H](C)CO)cc2N2CCC3(CC2)CC3)nc1N1CCC(F)(F)CC1 [Compound 270] | ≤ 0.1 µM
COc1ccc(NC(=O)c2ccc(NS(=O)(=O)[C@@H](C)CO)cc2N2CCC3(CC2)CC3)nc1N1CCO[C@H](C)C1 [Compound 271] | ≤ 0.1 µM
COc1ccc(NC(=O)c2ccc(NS(=O)(=O)[C@H](C)CO)cc2N2CCC3(CC2)CC3)nc1N1CCO[C@H](C)C1 [Compound 272] | ≤ 0.1 µM
COc1ccc(NC(=O)c2ccc(S(=O)(=O)NCCO)cc2N2CCC3(CC2)CC3)nc1N1CC(F)(F)C1 [Compound 276] | ≤ 0.1 µM
COc1ccc(NC(=O)c2ccc(S(=O)(=O)NCCO)cc2N2CCC3(CC2)CC3)nc1OCCC(F)(F)F [Compound 277] | ≤ 0.1 µM
COc1ccc(NC(=O)c2ccc(S(=O)(=O)NCCO)cc2N2CCC3(CC2)CC3)nc1N1CCC2(CC2)C1 [Compound 278] | ≤ 0.1 µM
COc1ccc(NC(=O)c2ccc(S(=O)(=O)NCCO)cc2N2CCC3(CC2)CC3)nc1OC1CCC1 [Compound 279] | ≤ 0.1 µM
COc1ccc(NC(=O)c2ccc(S(=O)(=O)NCCO)cc2N2CCC3(CC2)CC3)nc1N1CCC(C)(F)C1 (stereo not shown) [Compound 280] | ≤ 0.1 µM
COc1ccc(NC(=O)c2ccc(S(=O)(=O)NCCO)cc2N2CCC3(CC2)CC3)nc1N1CCC(F)CC1 [Compound 281] | ≤ 0.1 µM
COc1ccc(NC(=O)c2ccc(S(=O)(=O)NCCO)cc2N2CCC3(CC2)CC3)nc1N1CC2CC2C1 (stereo not shown) [Compound 282] | ≤ 0.1 µM
COc1ccc(NC(=O)c2ccc(S(=O)(=O)NCCO)cc2N2CCC3(CC2)CC3)nc1NC(C)(C)CO [Compound 283] | ≤ 0.1 µM
COc1ccc(NC(=O)c2ccc(S(=O)(=O)NCCO)cc2N2CCC3(CC2)CC3)nc1N1CCOCC1 [Compound 284] | ≤ 0.1 µM
COc1ccc(NC(=O)c2ccc(S(=O)(=O)N[C@@H](C)CO)cc2N2CCC3(CC2)CC3)nc1N1CCC(F)(F)CC1 [Compound 285] | ≤ 0.1 µM
COc1ccc(NC(=O)c2ccc(S(=O)(=O)N[C@H](C)CO)cc2N2CCC3(CC2)CC3)nc1N1CCC(F)(F)CC1 [Compound 286] | ≤ 0.1 µM
COc1ccc(NC(=O)c2ccc(S(=O)(=O)N[C@@H](C)CO)cc2N2CCC3(CC2)CC3)nc1N1CCO[C@H](C)C1 [Compound 287] | ≤ 0.1 µM
COc1ccc(NC(=O)c2ccc(S(=O)(=O)N[C@H](C)CO)cc2N2CCC3(CC2)CC3)nc1N1CCO[C@H](C)C1 [Compound 288] | ≤ 0.1 µM
COc1ccc(NC(=O)c2cnc(NS(=O)(=O)CCO)cc2N2CCC3(CC2)CC3)nc1N1CCO[C@H](C)C1 [Compound 290] | ≤ 0.1 µM
COc1ccc(NC(=O)c2cnc(NS(=O)(=O)CCO)cc2N2CCC3(CC2)CC3)nc1N1CC(F)(F)C1 [Compound 292] | ≤ 0.1 µM
COc1ccc(NC(=O)c2cnc(NS(=O)(=O)CCO)cc2N2CCC3(CC2)CC3)nc1OCCC(F)(F)F [Compound 293] | ≤ 0.1 µM

The next lines start with the values.

IC50 | Compound
0.1 to 0.5 µM | C[C@@H]1CN(c2cc(C(=O)Nc3cnc(S(=O)(=O)N[C@@H](C)CO)cc3N3CCC4(CC3)CC4)ccc2[N+](=O)[O-])CCO1 [Compound 223]
0.1 to 0.5 µM | C[C@H](CO)NS(=O)(=O)c1cc(N2CCC3(CC2)CC3)c(NC(=O)c2ccc([N+](=O)[O-])c(N3CCO[C@H](C)C3)c2)cn1 [Compound 224]
≤ 0.1 µM | O=C(Nc1cnc(NS(=O)(=O)CCO)cc1N1CCC2(CC1)CC2)c1ccc([N+](=O)[O-])c(N2CCC(F)(F)CC2)n1 [Compound 225]
≤ 0.1 µM | C[C@@H]1CN(c2nc(C(=O)Nc3cnc(NS(=O)(=O)CCO)cc3N3CCC4(CC3)CC4)ccc2[N+](=O)[O-])CCO1 [Compound 226]
≤ 0.1 µM | C[C@H]1CN(c2nc(C(=O)Nc3cnc(NS(=O)(=O)CCO)cc3N3CCC4(CC3)CC4)ccc2[N+](=O)[O-])CCO1 [Compound 227]
≤ 0.1 µM | O=C(Nc1cnc(NS(=O)(=O)CCO)cc1N1CCC2(CC1)CC2)c1ccc([N+](=O)[O-])c(N2CC(F)(F)C2)n1 [Compound 228]
≤ 0.1 µM | O=C(Nc1cnc(NS(=O)(=O)CCO)cc1N1CCC2(CC1)CC2)c1ccc([N+](=O)[O-])c(N2CCC3(CC3)C2)n1 [Compound 230]
≤ 0.1 µM | O=C(Nc1cnc(NS(=O)(=O)CCO)cc1N1CCC2(CC1)CC2)c1ccc([N+](=O)[O-])c(OC2CCC2)n1 [Compound 231]
≤ 0.1 µM | CC1(F)CCN(c2nc(C(=O)Nc3cnc(NS(=O)(=O)CCO)cc3N3CCC4(CC3)CC4)ccc2[N+](=O)[O-])C1 (stereo not shown) [Compound 232]
≤ 0.1 µM | O=C(Nc1cnc(NS(=O)(=O)CCO)cc1N1CCC2(CC1)CC2)c1ccc([N+](=O)[O-])c(N2CCC(F)CC2)n1 [Compound 233]
≤ 0.1 µM | O=C(Nc1cnc(NS(=O)(=O)CCO)cc1N1CCC2(CC1)CC2)c1ccc([N+](=O)[O-])c(N2CC3CC3C2)n1 (stereo not shown) [Compound 234]
≤ 0.1 µM | O=C(Nc1cnc(NS(=O)(=O)CCO)cc1N1CCC2(CC1)CC2)c1ccc([N+](=O)[O-])c(N2CCOCC2)n1 [Compound 236]
≤ 0.1 µM | C[C@@H](CO)S(=O)(=O)Nc1cc(N2CCC3(CC2)CC3)c(NC(=O)c2ccc([N+](=O)[O-])c(N3CCC(F)(F)CC3)n2)cn1 [Compound 237]
≤ 0.1 µM | C[C@H](CO)S(=O)(=O)Nc1cc(N2CCC3(CC2)CC3)c(NC(=O)c2ccc([N+](=O)[O-])c(N3CCC(F)(F)CC3)n2)cn1 [Compound 238]
≤ 0.1 µM | C[C@@H]1CN(c2nc(C(=O)Nc3cnc(NS(=O)(=O)[C@@H](C)CO)cc3N3CCC4(CC3)CC4)ccc2[N+](=O)[O-])CCO1 [Compound 239]
≤ 0.1 µM | C[C@@H]1CN(c2nc(C(=O)Nc3cnc(NS(=O)(=O)[C@H](C)CO)cc3N3CCC4(CC3)CC4)ccc2[N+](=O)[O-])CCO1 [Compound 240]
0.1 to 0.5 µM | O=C(Nc1cnc(S(=O)(=O)NCCO)cc1N1CCC2(CC1)CC2)c1ccc([N+](=O)[O-])c(N2CCC(F)(F)CC2)n1 [Compound 241]

IC50 | Compound
0.1 to 0.5 µM | C[C@@H]1CN(c2nc(C(=O)Nc3cnc(S(=O)(=O)NCCO)cc3N3CCC4(CC3)CC4)ccc2[N+](=O)[O-])CCO1 [Compound 242]
0.1 to 0.5 µM | C[C@H]1CN(c2nc(C(=O)Nc3cnc(S(=O)(=O)NCCO)cc3N3CCC4(CC3)CC4)ccc2[N+](=O)[O-])CCO1 [Compound 243]
0.1 to 0.5 µM | O=C(Nc1cnc(S(=O)(=O)NCCO)cc1N1CCC2(CC1)CC2)c1ccc([N+](=O)[O-])c(N2CC(F)(F)C2)n1 [Compound 244]
0.1 to 0.5 µM | O=C(Nc1cnc(S(=O)(=O)NCCO)cc1N1CCC2(CC1)CC2)c1ccc([N+](=O)[O-])c(OCCC(F)(F)F)n1 [Compound 245]
0.1 to 0.5 µM | O=C(Nc1cnc(S(=O)(=O)NCCO)cc1N1CCC2(CC1)CC2)c1ccc([N+](=O)[O-])c(OC2CCC2)n1 [Compound 247]
0.1 to 0.5 µM | CC1(F)CCN(c2nc(C(=O)Nc3cnc(S(=O)(=O)NCCO)cc3N3CCC4(CC3)CC4)ccc2[N+](=O)[O-])C1 (stereo not shown) [Compound 248]
0.1 to 0.5 µM | O=C(Nc1cnc(S(=O)(=O)NCCO)cc1N1CCC2(CC1)CC2)c1ccc([N+](=O)[O-])c(N2CCC(F)CC2)n1 [Compound 249]
0.1 to 0.5 µM | O=C(Nc1cnc(S(=O)(=O)NCCO)cc1N1CCC2(CC1)CC2)c1ccc([N+](=O)[O-])c(N2CC3CC3C2)n1 (stereo not shown) [Compound 250]
0.1 to 0.5 µM | CC(C)(CO)Nc1nc(C(=O)Nc2cnc(S(=O)(=O)NCCO)cc2N2CCC3(CC2)CC3)ccc1[N+](=O)[O-] [Compound 251]
0.1 to 0.5 µM | O=C(Nc1cnc(S(=O)(=O)NCCO)cc1N1CCC2(CC1)CC2)c1ccc([N+](=O)[O-])c(N2CCOCC2)n1 [Compound 252]
0.1 to 0.5 µM | C[C@@H](CO)NS(=O)(=O)c1cc(N2CCC3(CC2)CC3)c(NC(=O)c2ccc([N+](=O)[O-])c(N3CCC(F)(F)CC3)n2)cn1 [Compound 253]
0.1 to 0.5 µM | C[C@H](CO)NS(=O)(=O)c1cc(N2CCC3(CC2)CC3)c(NC(=O)c2ccc([N+](=O)[O-])c(N3CCC(F)(F)CC3)n2)cn1 [Compound 254]
0.1 to 0.5 µM | C[C@@H]1CN(c2nc(C(=O)Nc3cnc(S(=O)(=O)N[C@@H](C)CO)cc3N3CCC4(CC3)CC4)ccc2[N+](=O)[O-])CCO1 [Compound 255]
0.1 to 0.5 µM | C[C@H](CO)NS(=O)(=O)c1cc(N2CCC3(CC2)CC3)c(NC(=O)c2ccc([N+](=O)[O-])c(N3CCO[C@H](C)C3)n2)cn1 [Compound 256]
≤ 0.1 µM | COc1ccc(NC(=O)c2ccc(S(=O)(=O)NCCO)cc2N2CCC3(CC2)CC3)nc1N1CCO[C@H](C)C1 [Compound 274]
≤ 0.1 µM | COc1ccc(NC(=O)c2ccc(S(=O)(=O)NCCO)cc2N2CCC3(CC2)CC3)nc1N1CCO[C@@H](C)C1 [Compound 275]
≤ 0.1 µM | COc1ccc(NC(=O)c2cnc(NS(=O)(=O)CCO)cc2N2CCC3(CC2)CC3)nc1N1CCO[C@@H](C)C1 [Compound 291]
